pIC50: −log10 of the molar value.
Key:
Format in all cases: biochemical
[1] = biological target: T1, Amp-C (Escherichia coli, UniProt P00811); experiment: IC50, nitrocefin hydrolysis
T1 construct: made in house; host or cells: E. coli (DH5 and BL21(DE3) named; pET-28a)
Experimental: (§1) The IC50 values of all the proteins were calculated to determine the efficacy of each inhibitor. The IC50 values were calculated for the proteins NDM-1, Amp-C, KPC-2, CTX-M-15, SHV-1, and TEM-1 with each of its inhibitors (D63, D2148, and D2573) to compare their efficacies at a fixed concentration 100 μΜ of nitrocefin (Table 7).
(§2) Overexpression of proteins was done by adding 0.5 mM IPTG (isopropyl-β-D-thiogalactopyranoside), and purification of the NDM-1, SHV-1, TEM-1, CTX-M-15, KPC-2, and Amp-C recombinant protein was performed with an Ni-NTA affinity column. […] The final concentration of the protein was estimated with a NanoDrop instrument.
(§3) The direct competition between the β-lactamase substrate, nitrocefin, and their inhibitors were used to determine the IC50 and Ki values. Using a Shimadzu UV-VIS spectrophotometer UV-1800, variable quantities of inhibitor D63, D2148, and D2573 (0 to 3 μM), fixed concentrations of purified proteins (1 nM), and nitrocefin substrate (100 μM) were used in a reaction at 486 nm. […] The IC50 value is the inhibitor concentration that inhibits enzyme hydrolytic activity by 50% (50% inhibitory concentration).

[2] = biological target: T2, CTX-M-15 (Escherichia coli, UniProt Q9EXV5); experiment: IC50, nitrocefin hydrolysis; conditions: 100 μΜ nitrocefin
T2 construct: made in house; host or cells: E. coli (DH5 and BL21(DE3) named)
T2 sequence (Q9EXV5 29-291, species assumed): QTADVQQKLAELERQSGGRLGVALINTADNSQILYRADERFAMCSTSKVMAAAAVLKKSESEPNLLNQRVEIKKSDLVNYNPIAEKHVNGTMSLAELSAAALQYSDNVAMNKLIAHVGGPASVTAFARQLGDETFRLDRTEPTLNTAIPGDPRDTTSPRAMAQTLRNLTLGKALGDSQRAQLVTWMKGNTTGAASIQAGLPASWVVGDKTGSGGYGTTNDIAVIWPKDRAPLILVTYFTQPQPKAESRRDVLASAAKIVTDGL
Experimental: as §1, §2, §3

[3] = biological target: T3, KPC-2 (Klebsiella pneumoniae, UniProt Q9F663); experiment: IC50, nitrocefin hydrolysis; conditions: 100 μΜ nitrocefin
T3 construct: made in house; host or cells: E. coli (DH5 and BL21(DE3) named; pET-28a)
T3 sequence (Q9F663 25-293, looked up, species assumed): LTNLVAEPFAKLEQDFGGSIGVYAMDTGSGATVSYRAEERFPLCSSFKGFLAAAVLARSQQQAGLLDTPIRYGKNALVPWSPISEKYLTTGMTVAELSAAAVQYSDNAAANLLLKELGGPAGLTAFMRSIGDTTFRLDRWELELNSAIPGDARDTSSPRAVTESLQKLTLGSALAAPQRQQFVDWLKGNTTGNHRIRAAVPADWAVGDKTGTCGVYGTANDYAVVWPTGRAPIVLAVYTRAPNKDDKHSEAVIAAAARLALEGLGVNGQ
Experimental: as §1, §2, §3

[4] = biological target: T4, NDM-1 (Klebsiella pneumoniae, UniProt C7C422); experiment: IC50, nitrocefin hydrolysis; conditions: 100 μΜ nitrocefin
T4 construct: made in house; host or cells: E. coli (DH5 and BL21(DE3) named)
T4 sequence (C7C422 29-270, looked up, species assumed): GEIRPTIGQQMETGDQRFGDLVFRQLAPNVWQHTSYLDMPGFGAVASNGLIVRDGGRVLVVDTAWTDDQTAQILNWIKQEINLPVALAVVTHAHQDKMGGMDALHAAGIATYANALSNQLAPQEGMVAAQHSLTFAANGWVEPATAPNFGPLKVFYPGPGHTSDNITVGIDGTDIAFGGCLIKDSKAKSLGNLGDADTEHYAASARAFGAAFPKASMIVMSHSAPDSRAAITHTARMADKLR
Experimental: as §1, §2, §3

[5] = biological target: T5, SHV-1 (Klebsiella pneumoniae, UniProt P0AD64); experiment: IC50, nitrocefin hydrolysis
T5 construct: made in house; host or cells: E. coli (DH5 and BL21(DE3) named; pET-28a)
T5 sequence (P0AD64 22-286): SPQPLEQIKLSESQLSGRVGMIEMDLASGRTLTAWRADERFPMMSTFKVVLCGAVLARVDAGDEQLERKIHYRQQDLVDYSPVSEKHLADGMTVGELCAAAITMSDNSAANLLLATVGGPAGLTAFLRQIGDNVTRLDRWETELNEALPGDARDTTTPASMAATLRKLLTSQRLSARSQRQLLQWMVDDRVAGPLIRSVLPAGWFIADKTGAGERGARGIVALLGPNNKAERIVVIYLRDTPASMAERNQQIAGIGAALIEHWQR
Experimental: as §1, §2, §3

[6] = biological target: T6, TEM-1 (Escherichia coli, UniProt P62593); experiment: IC50, nitrocefin hydrolysis; conditions: 100 μΜ nitrocefin
T6 construct: made in house; host or cells: E. coli (DH5 and BL21(DE3) named; pET-28a)
T6 sequence (P62593 24-286 limits assumed): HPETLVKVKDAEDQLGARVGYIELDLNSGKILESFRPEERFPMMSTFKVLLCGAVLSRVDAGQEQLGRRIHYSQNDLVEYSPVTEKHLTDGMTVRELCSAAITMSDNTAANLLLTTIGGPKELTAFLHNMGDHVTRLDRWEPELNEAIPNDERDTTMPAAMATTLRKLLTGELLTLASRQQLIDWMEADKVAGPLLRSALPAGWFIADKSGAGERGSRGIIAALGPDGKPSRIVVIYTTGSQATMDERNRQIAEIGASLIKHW
Experimental: as §1, §2, §3

[7] = biological target: T1, Amp-C; experiment: Steady-state kinetics of antibiotic hydrolysis with inhibitor; conditions: inhibitor concentration as per IC50
Experimental: (§4) The enzyme kinetics parameters (Km, and kcat) for all six proteins/enzymes in combination with different antibiotics (cefotaxime, imipenem, and meropenem), were calculated. The concentration of inhibitors, D63, D2148, and D2573, was as per the IC50 value (Fig. 5); the kinetic parameters are listed in Table 8.
(§5) The steady-state kinetics of all six proteins were determined using the antibiotics:imipenem (Δε295 = −11,500 M^−1 cm^−1), meropenem (Δε297 = −10,940 M^−1 cm^−1), and cefotaxime (Δε264 = −27,250 M^−1 cm^−1). In this study, the D63, D2148, and D2573 inhibitors were tested. Hydrolysis of β-lactam antibiotics was detected by monitoring the variation in absorbance due to cleavage of the β-lactam ring in 50 mM, pH 7.0, phosphate buffer ([40], [41]). For hydrolysis of substrate (cefotaxime, imipenem, and meropenem) kinetics parameters, Km and kcat were calculated by using Michaelis Menten equations (equations 2 and 3). (2) V =Vmax [S]/Km + [S] (3) kcat = Vmax/E where E and S are the enzyme and substrate concentration, Km is the Michaelis-Mentent constant, kcat is the turnover number, and V and Vmax are the initial and maximum velocity of the hydrolysis, respectively.

[8] = biological target: T2, CTX-M-15; experiment: as above; conditions: inhibitor concentration as per IC50
Experimental: as §4, §5

[9] = biological target: T3, KPC-2; experiment: as above; conditions: inhibitor concentration as per IC50
Experimental: as §4, §5

[10] = biological target: T4, NDM-1; experiment: as above; conditions: inhibitor concentration as per IC50
Experimental: as §4, §5

[11] = biological target: T5, SHV-1; experiment: as above; conditions: inhibitor concentration as per IC50
Experimental: as §4, §5

[12] = biological target: T6, TEM-1; experiment: as above; conditions: inhibitor concentration as per IC50
Experimental: as §4, §5

T1 sequence (P00811 20-377): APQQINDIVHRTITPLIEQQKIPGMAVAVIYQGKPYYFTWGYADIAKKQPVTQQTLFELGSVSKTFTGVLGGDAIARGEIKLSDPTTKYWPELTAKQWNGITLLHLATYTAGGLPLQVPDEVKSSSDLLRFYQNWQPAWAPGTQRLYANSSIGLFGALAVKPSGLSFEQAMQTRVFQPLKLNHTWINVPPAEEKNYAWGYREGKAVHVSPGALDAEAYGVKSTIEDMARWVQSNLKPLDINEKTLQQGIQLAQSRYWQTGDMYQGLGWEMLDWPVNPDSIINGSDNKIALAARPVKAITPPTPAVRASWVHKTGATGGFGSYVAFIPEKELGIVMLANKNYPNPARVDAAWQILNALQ

O=C(CN1C(=O)c2ccccc2S1(=O)=O)c1ccc(O)c(O)c1 [D63, 2-[2-(3,4-dihydroxyphenyl)-2-oxoethyl]-1H-1,2-benzisothiazole-1,1,3(2H)-trione]
pIC50 [1]: 9.22 | pIC50 [2]: 9.11 | pIC50 [3]: 9.16 | pIC50 [4]: 9.13 | pIC50 [5]: 9.19 | pIC50 [6]: 9.14 | Km or Ki ([7]; cefotaxime): 1,522 μΜ | kcat ([7]; cefotaxime): 1.537 S^−1 | Km or Ki ([7]; imipenem): 499.22 μΜ | kcat ([7]; imipenem): 1.158 S^−1 | Km or Ki ([7]; meropenem): 553.8 μΜ | kcat ([7]; meropenem): 1.093 S^−1 | Km or Ki ([8]; cefotaxime): 742.7 μΜ | kcat ([8]; cefotaxime): 0.7320 S^−1 | Km or Ki ([8]; imipenem): 480.5 μΜ | kcat ([8]; imipenem): 5.572 S^−1 | Km or Ki ([8]; meropenem): 228.4 μΜ | kcat ([8]; meropenem): 1.723 S^−1 | Km or Ki ([9]; cefotaxime): 713 μΜ | kcat ([9]; cefotaxime): 0.384 S^−1 | Km or Ki ([9]; imipenem): 489.1 μΜ | kcat ([9]; imipenem): 0.39 S^−1 | Km or Ki ([9]; meropenem): 511.7 μΜ | kcat ([9]; meropenem): 0.45 S^−1 | Km or Ki ([10]; cefotaxime): 410.8 μΜ | kcat ([10]; cefotaxime): 1.833 S^−1 | Km or Ki ([10]; imipenem): 258.7 μΜ | kcat ([10]; imipenem): 18.29 S^−1 | Km or Ki ([10]; meropenem): 1,052 μΜ | kcat ([10]; meropenem): 9.282 S^−1 | Km or Ki ([11]; cefotaxime): 1,375 μΜ | kcat ([11]; cefotaxime): 1.621 S^−1 | Km or Ki ([11]; imipenem): 851 μΜ | kcat ([11]; imipenem): 1.525 S^−1 | Km or Ki ([11]; meropenem): 2,881 μΜ | kcat ([11]; meropenem): 1.928 S^−1 | Km or Ki ([12]; cefotaxime): 1,353 μΜ | kcat ([12]; cefotaxime): 1.051 S^−1 | Km or Ki ([12]; imipenem): 673.1 μΜ | kcat ([12]; imipenem): 1.194 S^−1 | Km or Ki ([12]; meropenem): 253.5 μΜ | kcat ([12]; meropenem): 0.6169 S^−1

O=C(c1ccccc1)C1CCN(C(=O)CN2C(=O)c3ccccc3C2=O)CC1 [D2148, 2-[2-(4-benzoylpiperidino) -2-oxoethyl]-1H-isoindole-1,3(2H)-dione]
pIC50 [1]: 9.15 | pIC50 [2]: 9.20 | pIC50 [3]: 9.13 | pIC50 [4]: 9.20 | pIC50 [5]: 9.23 | pIC50 [6]: 9.35 | Km or Ki ([7]; cefotaxime): 796.6 μΜ | kcat ([7]; cefotaxime): 3.401 S^−1 | Km or Ki ([7]; imipenem): 1,136 μΜ | kcat ([7]; imipenem): 2.631 S^−1 | Km or Ki ([7]; meropenem): 794 μΜ | kcat ([7]; meropenem): 2.637 S^−1 | Km or Ki ([8]; cefotaxime): 670.6 μΜ | kcat ([8]; cefotaxime): 838.6 S^−1 | Km or Ki ([8]; imipenem): 675.9 μΜ | kcat ([8]; imipenem): 2,720 S^−1 | Km or Ki ([8]; meropenem): 9,333 μΜ | kcat ([8]; meropenem): 17,974 S^−1 | Km or Ki ([9]; cefotaxime): 358.7 μΜ | kcat ([9]; cefotaxime): 3.293 S^−1 | Km or Ki ([9]; imipenem): 301.8 μΜ | kcat ([9]; imipenem): 3.44 S^−1 | Km or Ki ([9]; meropenem): 491 μΜ | kcat ([9]; meropenem): 2.47 S^−1 | Km or Ki ([10]; cefotaxime): 1,939 μΜ | kcat ([10]; cefotaxime): 15.88 S^−1 | Km or Ki ([10]; imipenem): 995.4 μΜ | kcat ([10]; imipenem): 20.6 S^−1 | Km or Ki ([10]; meropenem): 986.4 μΜ | kcat ([10]; meropenem): 9.201 S^−1 | Km or Ki ([11]; cefotaxime): 626.2 μΜ | kcat ([11]; cefotaxime): 6.751 S^−1 | Km or Ki ([11]; imipenem): 618.4 μΜ | kcat ([11]; imipenem): 5.535 S^−1 | Km or Ki ([11]; meropenem): 1,376 μΜ | kcat ([11]; meropenem): 6.436 S^−1 | Km or Ki ([12]; cefotaxime): 757.7 μΜ | kcat ([12]; cefotaxime): 6.332 S^−1 | Km or Ki ([12]; imipenem): 689.7 μΜ | kcat ([12]; imipenem): 0.9853 S^−1 | Km or Ki ([12]; meropenem): 7,537 μΜ | kcat ([12]; meropenem): 43.13 S^−1

O=C(O)c1ccccc1C(=O)N1CCN(c2nc(-c3ccccc3)ns2)CC1 [D2573, 2-{[4-(3-phenyl-1,2,4-thiadiazol-5-yl)piperazino]carbonyl}benzoic acid]
pIC50 [1]: 9.18 | pIC50 [2]: 9.14 | pIC50 [3]: 9.18 | pIC50 [4]: 9.20 | pIC50 [5]: 9.18 | pIC50 [6]: 9.20 | Km or Ki ([7]; cefotaxime): 1,522 μΜ | kcat ([7]; cefotaxime): 1.5 S^−1 | Km or Ki ([7]; imipenem): 499 μΜ | kcat ([7]; imipenem): 1.158 S^−1 | Km or Ki ([7]; meropenem): 553 μΜ | kcat ([7]; meropenem): 1.09 S^−1 | Km or Ki ([8]; cefotaxime): 330.1 μΜ | kcat ([8]; cefotaxime): 0.9055 S^−1 | kcat ([8]; imipenem): 1.454 S^−1 | Km or Ki ([8]; meropenem): 469.8 μΜ | kcat ([8]; meropenem): 0.9091 S^−1 | Km or Ki ([9]; cefotaxime): 549.1 μΜ | kcat ([9]; cefotaxime): 0.454 S^−1 | Km or Ki ([9]; imipenem): 878.8 μΜ | kcat ([9]; imipenem): 0.419 S^−1 | Km or Ki ([9]; meropenem): 2,786 μΜ | kcat ([9]; meropenem): 1.02 S^−1 | Km or Ki ([10]; cefotaxime): 8,756 μΜ | kcat ([10]; cefotaxime): 4.921 S^−1 | Km or Ki ([10]; imipenem): 301.3 μΜ | kcat ([10]; imipenem): 3.875 S^−1 | Km or Ki ([10]; meropenem): 756.8 μΜ | kcat ([10]; meropenem): 14.59 S^−1 | Km or Ki ([11]; cefotaxime): 608 μΜ | kcat ([11]; cefotaxime): 0.8431 S^−1 | Km or Ki ([11]; imipenem): 1,138 μΜ | kcat ([11]; imipenem): 0.958 S^−1 | Km or Ki ([11]; meropenem): 979 μΜ | kcat ([11]; meropenem): 1.232 S^−1 | Km or Ki ([12]; cefotaxime): 905.2 μΜ | kcat ([12]; cefotaxime): 1.056 S^−1 | Km or Ki ([12]; imipenem): 2,665 μΜ | kcat ([12]; imipenem): 1.454 S^−1 | Km or Ki ([12]; meropenem): 2,129 μΜ | kcat ([12]; meropenem): 1.563 S^−1
